According to patent publication EP4241766A1, “USE OF OLFACTORY RECEPTOR OR13A1 LIGANDS IN THE TREATMENT OF LYMPHOMAS” (Fondazione Per L'Istituto Oncologico Di Ricerca (IOR), priority 2022, dated 2023):

Assays:
[1] = test system: U2932 DLBCL cell line; assay: Growth/viability of U2932 cells with doxycycline-inducible shRNA system targeting OR13A1; format: cell-based
Description: • Figure 1. Expression of OR13A1 across lymphoma cell lines as measured by RNA-Seq. A) Heatmap is based on log2 CPM (counts per million). Scale ranges from low (white) to high expression (black). Each horizontal represents the value for one cell line. GCB DLBCL, diffuse large B-cell lymphoma of the germinal center B-cell-type; ABC DLBCL, diffuse large B-cell lymphoma of the activated B-cell-like; MCL, mantle cell lymphoma; MZL, marginal zone lymphoma; CLL, chronic lymphocytic leukemia; PMBCL, primary mediastinal large B-cell lymphoma; BL, Burkitt lymphoma. B) OR13A1 expression level by cell of origin in DLBCL cell lines, the expression was higher in cells derived from germinal center (GC) B-cell type (GCB) than activated B cell like (ABC) DLBCL (P value = 0.03). • Figure 2. OR13A1 silencing is associated with reduction in cell viability of DLBCL cells. Left panel, real-time PCR showing reduction of OR13A1 72h after siRNA treatment. Right panel, Reduction of cell viability, measured with MTT, in DLBCL cells after gene silencing. • Figure 3. Homology model of OR13A1 with two ligands. A) cyclohexanone docked onto the orthosteric binding site. B) tyramine docked onto the orthosteric binding site. Residues identified in the model to interact with the tyramine, potentially relevant for the receptor activation, are shown in sticks, D221 and T297. • Figure 4. […] Experiments were done using U2932 cells with the doxycycline-inducible shRNA system, exposed or not to cyclohexanone (25µM). The red arrow indicates the addition of cyclohexanone. CH, cyclohexanone; sh1, doxycycline-inducible shRNA targeting OR13A1; shCNT, scramble doxycycline-inducible shRNA.
Cellular experiments followed with cyclohexanone and, among the predicted ligands, tyramine using the U2932 DLBCL cell line with the doxycycline-inducible shRNA system.

[2] = test system: Olfr1484; details: experimentally demonstrated, reference [52]; cited from earlier work
[3] = target: T1, Olfr211 (Mus musculus, UniProt Q8VGH2); details: experimentally demonstrated, reference [52]; cited from earlier work
T1 sequence (Q8VGH2 1-309): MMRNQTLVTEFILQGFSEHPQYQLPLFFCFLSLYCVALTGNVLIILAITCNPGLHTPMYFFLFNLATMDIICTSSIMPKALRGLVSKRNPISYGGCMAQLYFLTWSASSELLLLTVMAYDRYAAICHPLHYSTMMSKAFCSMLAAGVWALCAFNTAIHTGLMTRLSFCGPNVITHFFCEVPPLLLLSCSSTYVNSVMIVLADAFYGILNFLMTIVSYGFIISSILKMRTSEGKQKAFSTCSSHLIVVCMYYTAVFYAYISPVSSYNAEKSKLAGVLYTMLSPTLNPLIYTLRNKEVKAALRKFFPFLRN

| SMILES | lymphoma cell viability ([1]; U2932, in the presence of the GPCR (OR13A1), Figure 4) | effect on growth of DLBCL cells ([1]; U2932 cells, cyclohexanone 25µM, absence of OR13A1 (sh1), Figure 4) | growth of DLBCL cells ([1]; U2932 cells, cyclohexanone 25µM, Figure 4) | ligand of Olfr1484 [2] | ligand of Olfr211 [3] | lymphoma cell line growth ([1]; U2932 DLBCL cell line, doxycycline-inducible shRNA system) |
| --- | --- | --- | --- | --- | --- | --- |
| O=C1CCCCC1 [cyclohexanone] | decreased the lymphoma cell viability in the presence | The absence of OR13A1 abrogates the effect | reduces the growth of DLBCL cells | ligand | ligand | – |
| NCCc1ccc(O)cc1 [tyramine] | – | – | – | – | – | increased lymphoma cell line growth |
